The results in this text go back to patent US11680068B2, “Compounds useful as RET inhibitors” (Cancer Research Technology Limited, priority 2017, dated 2023).

For this assay, the target named is RET (Homo sapiens (Human), UniProt P07949). Nature of the assay: RET enzyme assay (CisBio HTRF kinEASE). The assay is classed as biochemical. To be noted: tested compounds listed as lacking activity.
Sequence of RET (P07949 658-1114): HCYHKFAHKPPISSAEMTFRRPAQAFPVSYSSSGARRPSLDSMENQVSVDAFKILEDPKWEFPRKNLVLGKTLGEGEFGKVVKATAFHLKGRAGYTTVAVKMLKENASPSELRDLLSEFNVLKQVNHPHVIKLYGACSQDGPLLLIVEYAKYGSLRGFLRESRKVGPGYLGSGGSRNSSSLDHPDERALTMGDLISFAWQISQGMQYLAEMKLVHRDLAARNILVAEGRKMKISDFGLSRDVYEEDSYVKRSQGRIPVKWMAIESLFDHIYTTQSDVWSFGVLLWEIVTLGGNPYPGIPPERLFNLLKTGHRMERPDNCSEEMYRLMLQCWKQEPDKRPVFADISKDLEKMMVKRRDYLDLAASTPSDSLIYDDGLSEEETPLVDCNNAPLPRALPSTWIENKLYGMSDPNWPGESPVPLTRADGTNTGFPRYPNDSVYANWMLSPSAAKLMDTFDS
Consider `CC(C)(C)n1nc(-c2ccc3cc(C(=O)O)[nH]c3c2)c2c(N)ncnc21` [6-(4-amino-1-tert-butyl-pyrazolo[3,4-d]pyrimidin-3-yl)-1H-indole-2-carboxylic acid], for which the “desired activity in the assays described in Example 51” value (“desired activity” for short) was “did not exhibit the desired activity”.

Regarding `CC(C)(C)n1nc(-c2ccc3cc(C(=O)Nc4nnc(C(F)(F)F)s4)[nH]c3c2)c2c(N)ncnc21` [6-(4-amino-1-tert-butyl-pyrazolo[3,4-d]pyrimidin-3-yl)-N-[5-(trifluoromethyl)-1,3,4-thiadiazol-2-yl]-1H-indole-2-carboxamide], the “desired activity” value is recorded as “did not exhibit the desired activity”.

`CNC(=O)c1cc2ccc(-c3n[nH]c4ncnc(N)c34)cc2[nH]1` [6-(4-amino-1H-pyrazolo[3,4-d]pyrimidin-3-yl)-N-methyl-1H-indole-2-carboxamide]: the “desired activity” value is “did not exhibit the desired activity”.

With `CNC(=O)c1cc2ccc(-c3nn(CCO)c4ncnc(N)c34)cc2[nH]1` [6-[4-amino-1-(2-hydroxyethyl)pyrazolo[3,4-d]pyrimidin-3-yl]-N-methyl-1H-indole-2-carboxamide], the “desired activity” value is “did not exhibit the desired activity”.

Consider `CNC(=O)c1cc2ccc(-c3nn(CC(=O)N(C)C)c4ncnc(N)c34)cc2[nH]1` [6-[4-amino-1-[2-(dimethylamino)-2-oxo-ethyl]pyrazolo[3,4-d]pyrimidin-3-yl]-N-methyl-1H-indole-2-carboxamide], for which the “desired activity” value is “did not exhibit the desired activity”.

With `CNC(=O)c1cc2ccc(-c3nn(CCC(=O)N(C)C)c4ncnc(N)c34)cc2[nH]1` [6-[4-amino-1-[3-(dimethylamino)-3-oxo-propyl]pyrazolo[3,4-d]pyrimidin-3-yl]-N-methyl-1H-indole-2-carboxamide], the “desired activity” value was “did not exhibit the desired activity”.

On to `CCNC(=O)c1cc2ccc(-c3nn([C@H]4CC[C@@H](O)C4)c4ncnc(NC)c34)cc2[nH]1` [N-ethyl-6-[1-[(1S,3R)-3-hydroxycyclopentyl]-4-(methylamino)pyrazolo[3,4-d]pyrimidin-3-yl]-1H-indole-2-carboxamide], for which the “desired activity” value was “did not exhibit the desired activity”.
